What was measured:
[1] = target: T1, cynomolgus monkey C17,20 lyase (Macaca fascicularis, UniProt Q2XVA1); experiment: In vitro C17,20 lyase assay, testicular microsomes; format: biochemical; details: mean of duplicates
T1 construct: microsomal preparations of the enzyme from testicular tissue; from tissue; host or cells: cynomolgus monkey testes, microsomes
T1 sequence (Q2XVA1 1-508): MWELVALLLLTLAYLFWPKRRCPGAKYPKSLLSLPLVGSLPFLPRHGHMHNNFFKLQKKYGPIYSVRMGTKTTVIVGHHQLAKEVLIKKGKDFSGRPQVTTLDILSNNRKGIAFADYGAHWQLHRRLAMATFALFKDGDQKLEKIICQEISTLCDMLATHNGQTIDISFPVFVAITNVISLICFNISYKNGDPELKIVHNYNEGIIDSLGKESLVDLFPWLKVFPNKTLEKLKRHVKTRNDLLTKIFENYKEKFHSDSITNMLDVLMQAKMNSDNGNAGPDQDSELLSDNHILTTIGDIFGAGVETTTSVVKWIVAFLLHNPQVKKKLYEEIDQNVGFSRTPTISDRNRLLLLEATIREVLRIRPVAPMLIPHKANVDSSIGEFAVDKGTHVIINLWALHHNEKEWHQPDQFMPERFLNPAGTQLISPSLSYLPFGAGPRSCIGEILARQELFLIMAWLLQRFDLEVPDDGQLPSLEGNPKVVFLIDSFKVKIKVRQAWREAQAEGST
Method: In vitro C17,20 lyase assays: Compounds were tested for inhibition of cynomolgus monkey C17,20 lyase in vitro using microsomal preparations of the enzyme from testicular tissue. Testes were removed from anesthetized animals and flash frozen in liquid nitrogen. Microsomes were isolated as described in Schatzman et al., Anal. Biochem. 175, 219-226 (1988). The compound to be tested was dissolved in dimethyl sulfoxide and diluted in 0.05 M potassium phosphate buffer, pH 7.4, to give the desired concentrations of test compound, in an amount which contributed 0.1% v/v DMSO to the total assay volume. Assays contained 0.05 M potassium phosphate buffer, pH 7.4, an NADPH regenerating system (1 mM NADPH, 5 mM glucose-6-phosphate, 1 IU/mL glucose-6-phosphate dehydrogenase), test compound, substrate and microsomal protein in a total volume of 0.2 mL. Control assays contained all components, including dimethyl sulfoxide, but not test ccmpound. All assays were performed in duplicate. The test compound was incubated with 20 to 62 µg/mL microsomal protein, buffer, and the NADPH regenerating system described above at 34°C for 0 or 40 minutes. Aliquots of 180 µL were then removed and assayed for enzyme activity by addition to 7-[^3H]-17α-hydroxypregnenolone (11.2 mCi/mmole; 0.2 µCi per assay) plus unlabeled 17α-hydroxypregnenolone dissolved in DMSO, contributing 2.5% v/v to the final assay mix, and phosphate buffer to give a total substrate concentration of 0.05 µM (=Km) per assay and subsequent incubation at 34°C for 6 minutes. Each assay was terminated by addition of 5 mL of chloroform:methanol (2:1). Carrier steroids representing substrates and produces (17α-hydroxypregnenolone, dehydroepiandrosterone, and androst-5-ene-3β,17β-diol) and 0.8 mL of distilled, deionized water were also added at this time. The steroids were extracted by the method of Moore and Wilson (Methods in Enzymol., eds. O. Malley, B.W. and Hardman, J.G. 36, 1975, pp. 466-474). The organic phase containing the steroids was evaporated using nitrogen gas, the residues dissolved in 18% tetrahydrofuran (v/v) in hexane, and the steroids were separated by HPLC on a Si60 (5 µm) column (250 x 4 mm) using a gradient of 18-22% tetrahydrofuran (v/v) in hexane. Radioactivity in the steroid peaks was measured using a Radiomatic® Model ES or Model A515 Flo-One® detector.
The enzyme activity for each assay was calculated from the percent conversion of substrate to products, and the results were expressed as percent inhibition of control. The following results were obtained, wherein the values indicated are the mean of duplicate determinations: Table 1: […]

[2] = target: T2, cynomolgus monkey prostatic 5α-reductase (Macaca fascicularis, UniProt Q28892); experiment: In vitro 5α-reductase assay, prostate microsomes; format: biochemical; details: mean of duplicates
T2 construct: microsomal preparations of the 5α-reductase enzyme from laboratory animal prostate tissue; from tissue; host or cells: cynomolgus monkey prostate, microsomes
T2 sequence (Q28892 1-254): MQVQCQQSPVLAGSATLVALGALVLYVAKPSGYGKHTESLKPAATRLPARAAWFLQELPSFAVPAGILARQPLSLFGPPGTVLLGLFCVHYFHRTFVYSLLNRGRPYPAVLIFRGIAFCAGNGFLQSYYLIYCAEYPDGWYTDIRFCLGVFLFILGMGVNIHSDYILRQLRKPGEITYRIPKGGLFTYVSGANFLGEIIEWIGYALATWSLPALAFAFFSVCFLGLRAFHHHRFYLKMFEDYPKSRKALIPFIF
Method: In vitro 5α-reductase assays: The activity of the present compounds as inhibitors of steroid 5α-reductase was determined using microsomal preparations of the 5α-reductase enzyme from laboratory animal prostate tissue. Specifically, microsomes were isolated from cynomolgus monkey prostate tissue. Protein concentration of the microsomal preparations was determined prior to use of the samples. Individual assays of cynomolgus monkey prostatic 5α-reductase activity contained 0.1 M potassium phosphate-sodium citrate buffer, pH 5.6 1.0% (w/v) bovine serum albumin, […] sodium EDTA, 4 µg of microsomal protein, 1.0 mM NADPH, 5.0 mM glucose-6-phosphate, 1 IU/mL glucose-6-phosphate dehydrogenase, [1,2-^3H]-testosterone (0.15 µCi) plus unlabeled testosterone to yield 0.015 µM (Km = 0.015 µM to 0.091 µM in multiple determinations), and test compound which was dissolved in DMSO then diluted in 0.1 M potassium phosphate-sodium citrate buffer, pH 5.6, to yield a final assay concentration of 0.1% (v/v) DMSO. The same buffer and DMSO without test compound were used in control assays. Background radioactivity was determined from assays containing all components except enzyme. Assays were performed in duplicate. Microsomes, 0.1 M potassium phosphate-sodium citrate buffer, pH 5.6, and test compound were preincubated at 37°C. Aliquots of 180 µL were removed after 0 or 40 minutes of preincubation and added to […] of testosterone substrate suspended in 0.1 M potassium phosphate-sodium citrate buffer, pH 5.6, containing 10% (v/v) DMSO. Remaining enzyme activity was assayed for 10 minutes at 37°C in a Dubnoff shaker incubator.
The reactions were terminated by the addition of 5 mL CHCl3:methanol (2:1) and 0.9 mL water. Carrier steroids were added in the form of 2.5 µg each of testosterone, dihydrotestosterone, and 3,17-androstanediol. Steroid metabolites were then extracted according to the procedure of Moore and Wilson (Methods in Enzymol., O'Malley, B.W. and Hardman, J.G. eds., 36, 1975, pp. 466-474), the organic phase containing the steroids was evaporated using nitrogen gas, the residues were dissolved in 3% (v/v) isopropanol in hexane. The steroids were then separated by normal phase HPLC on a LiCrosorb® DIOL derivatized silica gel column (10 µm; 4 x 250 mm) with a 3% to 7.5% isopropanol in hexane gradient, followed by isocratic conditions of […] isopropanol in hexane. Radioactivity in the steroid peaks was measured using a Packard Radiomatic model HS Flo-One detector. When the compound were tested using the above procedures with cynomolgus monkey 5α-reductase, the following results were obtained: Table 2: […]

C[C@]12CC[C@H]3[C@@H](CC=C4NC(=O)CC[C@@]43C)[C@@H]1CC[C@@H]2OC1CC1 (stereo in doubt) [MDL 103,496, 17β-Cyclopropyloxy-4-aza-androst-5-en-3-one]
inhibition at 0.1 µM ([1]; preincubation 0 min): 5% | inhibition at 0.1 µM ([1]; preincubation 40 min): 26.6% | inhibition at 1 µM ([1]; preincubation 0 min): 29% | inhibition at 1 µM ([1]; preincubation 40 min): 62.2% | inhibition at 10 µM ([1]; preincubation 0 min): 39.2% | inhibition at 10 µM ([1]; preincubation 40 min): 87.7% | inhibition at 0.1 µM ([2]; preincubation 0 min): 24.6% | inhibition at 0.1 µM ([2]; preincubation 40 min): 29.5% | inhibition at 1 µM ([2]; preincubation 0 min): 86.2% | inhibition at 1 µM ([2]; preincubation 40 min): 86.7% | inhibition at 10 µM ([2]; preincubation 0 min): 99.6% | inhibition at 10 µM ([2]; preincubation 40 min): 99.4%

Reference: patent publication EP0880540B1, “17-BETA-CYCLOPROPYL(AMINO/OXY) 4-AZA STEROIDS AS ACTIVE INHIBITORS OF TESTOSTERONE 5-ALPHA-REDUCTASE AND C17-20-LYASE” (Aventis Pharmaceuticals Inc., priority 1996, dated 1997)
